Tests used:
[1] = Selectivity index determined for CC50 (test I) to EC50 x 10e3; type: functional
[2] = Selectivity index determined for CC50 (test II) to EC50 x 10e3; type: functional

Compound | SI [1] | SI [2]
NCCCC[C@@H]1NC(=O)[C@@H](CCCCN)NC(=O)[C@H](CCCNC(N)=O)NC(=O)[C@@H](Cc2ccc(O)cc2)NC(=O)[C@H](NC(=O)[C@@H](NC(=O)[C@H](CCCN=C(N)N)NC(=O)[C@@H](N)CCCNC(N)=O)c2ccc3ccccc3c2)CSSC[C@H](C(=O)N[C@@H](CCCN=C(N)N)C(=O)O)NC(=O)[C@H](CCCNC(N)=O)NC(=O)[C@H](CCCN=C(N)N)NC(=O)[C@H](Cc2ccc(O)cc2)NC(=O)[C@H]2CCCN2C1=O | > 2.7 | 22
NCCCC[C@H]1NC(=O)[C@H](CCCN=C(N)N)NC(=O)[C@@H](Cc2ccc(O)cc2)NC(=O)[C@H](NC(=O)[C@@H](NC(=O)[C@H](CCCN=C(N)N)NC(=O)[C@@H](N)CCCNC(N)=O)c2ccc3ccccc3c2)CSSC[C@H](C(=O)N[C@@H](CCCN=C(N)N)C(=O)O)NC(=O)[C@H](CCCNC(N)=O)NC(=O)[C@H](CCCN=C(N)N)NC(=O)[C@H](Cc2ccc(O)cc2)NC(=O)[C@H]2CCCN2C(=O)[C@H](CCCNC(N)=O)NC1=O | > 2.8 | > 22
NCCCC[C@@H]1NC(=O)[C@@H](CCCCN)NC(=O)[C@H](CCCNC(N)=O)NC(=O)[C@@H](Cc2ccc(O)cc2)NC(=O)[C@H](NC(=O)[C@@H](NC(=O)[C@H](CCCN=C(N)N)NC(=O)[C@@H](N)CCCN=C(N)N)c2ccc3ccccc3c2)CSSC[C@H](C(=O)N[C@@H](CCCN=C(N)N)C(N)=O)NC(=O)[C@H](CCCNC(N)=O)NC(=O)[C@H](CCCN=C(N)N)NC(=O)[C@H](Cc2ccc(O)cc2)NC(=O)[C@H]2CCCN2C1=O | > 170 | 680
NCCCC[C@@H]1NC(=O)[C@@H](CCCCN)NC(=O)[C@H](CCCN=C(N)N)NC(=O)[C@@H](Cc2ccc(O)cc2)NC(=O)[C@H](NC(=O)[C@@H](NC(=O)[C@H](CCCN=C(N)N)NC(=O)[C@@H](N)CCCNC(N)=O)c2ccc3ccccc3c2)CSSC[C@H](C(=O)N[C@@H](CCCN=C(N)N)C(=O)O)NC(=O)[C@H](CCCNC(N)=O)NC(=O)[C@H](CCCNC(N)=O)NC(=O)[C@H](Cc2ccc(O)cc2)NC(=O)[C@H]2CCCN2C1=O | > 1.5 | > 12
NCCCC[C@H]1NC(=O)[C@H](CCCNC(N)=O)NC(=O)[C@@H](Cc2ccc(O)cc2)NC(=O)[C@H](NC(=O)[C@@H](NC(=O)[C@H](CCCN=C(N)N)NC(=O)[C@@H](N)CCCN=C(N)N)c2ccc3ccccc3c2)CSSC[C@H](C(=O)N[C@@H](CCCN=C(N)N)C(N)=O)NC(=O)[C@H](CCCNC(N)=O)NC(=O)[C@H](CCCN=C(N)N)NC(=O)[C@H](Cc2ccc(O)cc2)NC(=O)[C@H]2CCCN2C(=O)[C@H](CCCNC(N)=O)NC1=O | > 250 | > 2000
NCCCC[C@@H]1NC(=O)[C@@H](CCCCN)NC(=O)[C@H](CCCNC(N)=O)NC(=O)[C@@H](Cc2ccc(O)cc2)NC(=O)[C@H](NC(=O)[C@@H](NC(=O)[C@H](CCCN=C(N)N)NC(=O)[C@@H](N)CCCNC(N)=O)c2ccc3ccccc3c2)CSSC[C@H](C(=O)N[C@@H](CCCN=C(N)N)C(N)=O)NC(=O)[C@H](CCCNC(N)=O)NC(=O)[C@H](CCCN=C(N)N)NC(=O)[C@H](Cc2ccc(O)cc2)NC(=O)[C@H]2CCCN2C1=O | > 15 | 53
NCCCC[C@H]1NC(=O)[C@H](CCCN=C(N)N)NC(=O)[C@@H](Cc2ccc(O)cc2)NC(=O)[C@H](NC(=O)[C@@H](NC(=O)[C@H](CCCN=C(N)N)NC(=O)[C@@H](N)CCCN=C(N)N)c2ccc3ccccc3c2)CSSC[C@H](C(=O)N[C@@H](CCCN=C(N)N)C(N)=O)NC(=O)[C@H](CCCNC(N)=O)NC(=O)[C@H](CCCN=C(N)N)NC(=O)[C@H](Cc2ccc(O)cc2)NC(=O)[C@H]2CCCN2C(=O)[C@H](CCCNC(N)=O)NC1=O | > 22 | 21
NCCCC[C@@H]1NC(=O)[C@@H](CCCCN)NC(=O)[C@H](CCCNC(N)=O)NC(=O)[C@@H](Cc2ccc(O)cc2)NC(=O)[C@H](NC(=O)[C@@H](NC(=O)[C@H](CCCN=C(N)N)NC(=O)[C@@H](N)CCCN=C(N)N)c2ccc3ccccc3c2)CSSC[C@H](C(=O)N[C@@H](CCCN=C(N)N)C(N)=O)NC(=O)[C@H](CCCNC(N)=O)NC(=O)[C@H](CCCNC(N)=O)NC(=O)[C@H](Cc2ccc(O)cc2)NC(=O)[C@H]2CCCN2C1=O | > 15 | > 59
NCCCC[C@H]1NC(=O)[C@H](CCCN=C(N)N)NC(=O)[C@@H](Cc2ccc(O)cc2)NC(=O)[C@H](NC(=O)[C@@H](NC(=O)[C@H](CCCN=C(N)N)NC(=O)[C@@H](N)CCCN=C(N)N)c2ccc3ccccc3c2)CSSC[C@H](C(=O)N[C@@H](CCCN=C(N)N)C(=O)O)NC(=O)[C@H](CCCNC(N)=O)NC(=O)[C@H](CCCNC(N)=O)NC(=O)[C@H](Cc2ccc(O)cc2)NC(=O)[C@H]2CCCN2C(=O)[C@H](CCCNC(N)=O)NC1=O | > 13 | > 100
NCCCC[C@@H]1NC(=O)[C@@H](CCCCN)NC(=O)[C@H](CCCN=C(N)N)NC(=O)[C@@H](Cc2ccc(O)cc2)NC(=O)[C@H](NC(=O)[C@@H](NC(=O)[C@H](CCCN=C(N)N)NC(=O)[C@@H](N)CCCNC(N)=O)c2ccc3ccccc3c2)CSSC[C@H](C(=O)N[C@@H](CCCN=C(N)N)C(N)=O)NC(=O)[C@H](CCCNC(N)=O)NC(=O)[C@H](CCCNC(N)=O)NC(=O)[C@H](Cc2ccc(O)cc2)NC(=O)[C@H]2CCCN2C1=O | > 2.5 | 12
NCCCC[C@@H]1NC(=O)[C@@H](CCCCN)NC(=O)[C@H](CCCNC(N)=O)NC(=O)[C@@H](Cc2ccc(O)cc2)NC(=O)[C@H](NC(=O)[C@@H](NC(=O)[C@H](CCCN=C(N)N)NC(=O)[C@@H](N)CCCN=C(N)N)c2ccc3ccccc3c2)CSSC[C@H](C(=O)N[C@@H](CCCN=C(N)N)C(=O)O)NC(=O)[C@H](CCCNC(N)=O)NC(=O)[C@H](CCCNC(N)=O)NC(=O)[C@H](Cc2ccc(O)cc2)NC(=O)[C@H]2CCCN2C1=O | > 11 | > 90
NCCCC[C@@H]1NC(=O)[C@@H](CCCCN)NC(=O)[C@H](CCCNC(N)=O)NC(=O)[C@@H](Cc2ccc(O)cc2)NC(=O)[C@H](NC(=O)[C@@H](NC(=O)[C@H](CCCN=C(N)N)NC(=O)[C@@H](N)CCCN=C(N)N)c2ccc3ccccc3c2)CSSC[C@H](C(=O)N[C@@H](CCCN=C(N)N)C(=O)O)NC(=O)[C@H](CCCNC(N)=O)NC(=O)[C@H](CCCN=C(N)N)NC(=O)[C@H](Cc2ccc(O)cc2)NC(=O)[C@H]2CCCN2C1=O | > 29 | 180
NCCCC[C@H]1NC(=O)[C@H](CCCNC(N)=O)NC(=O)[C@@H](Cc2ccc(O)cc2)NC(=O)[C@H](NC(=O)[C@@H](NC(=O)[C@H](CCCN=C(N)N)NC(=O)[C@@H](N)CCCN=C(N)N)c2ccc3ccccc3c2)CSSC[C@H](C(=O)N[C@@H](CCCN=C(N)N)C(=O)O)NC(=O)[C@H](CCCNC(N)=O)NC(=O)[C@H](CCCN=C(N)N)NC(=O)[C@H](Cc2ccc(O)cc2)NC(=O)[C@H]2CCCN2C(=O)[C@H](CCCNC(N)=O)NC1=O | > 200 | > 1600
NCCCC[C@H]1NC(=O)[C@H](CCCN=C(N)N)NC(=O)[C@@H](Cc2ccc(O)cc2)NC(=O)[C@H](NC(=O)[C@@H](NC(=O)[C@H](CCCN=C(N)N)NC(=O)[C@@H](N)CCCN=C(N)N)c2ccc3ccccc3c2)CSSC[C@H](C(=O)N[C@@H](CCCN=C(N)N)C(N)=O)NC(=O)[C@H](CCCNC(N)=O)NC(=O)[C@H](CCCNC(N)=O)NC(=O)[C@H](Cc2ccc(O)cc2)NC(=O)[C@H]2CCCN2C(=O)[C@H](CCCNC(N)=O)NC1=O | > 37 | 250
